Test results reported in patent US5612369A, “Thrombin inhibitors” (3-Dimensional Pharmaceuticals, Inc., priority 1995, dated 1997).

Tests used:
[1] = test system: factor Xa; assay: In vitro inhibition of factor Xa (hydrolysis of Bz-Ile-Glu-Gly-Arg-pNa); type: biochemical, human; details: at 60 μM inhibitor; factor Xa 10 nM, Bz-Ile-Glu-Gly-Arg-pNa 26 μM, pH 7.5, 37° C.
Description: (§1) The ability of the compounds of the present invention to act as inhibitors of thrombin, factor Xa and plasmin catalytic activity was assessed by determining the concentration which inhibited enzyme activity by 50% using purified human enzymes. The concentration of added inhibitor that caused a 50% decrease in the initial rate of hydrolysis was defined as the IC50 value.
All assays are based on the ability of the test compound to inhibit the hydrolysis of a peptide p-nitroanilide substrate. In a typical experiment, appropriate substrate is prepared in DMSO, and diluted into an assay buffer consisting of 50ram HEPES and 130 mM NaCl at a pH of 7.5. The final concentration for each of the substrates is listed below. […]
In a typical IC50 determination, into each well of a 96 well plate is pipetted 280 uL of substrate solution, 10 μL of inhibitor solution, and the plate is allowed to thermally equilibrate at 37° C. in a Molecular Devices Plate Reader for at least 10 minutes. Reactions are initiated by the addition of a 20 μL aliquot of enzyme, and the absorbance increase at 405 nm is recorded for 15 minutes. […] The ratio of the velocity (rate of the change in absorbance as a function of time) for a sample containing no inhibitor is divided by the velocity of a sample containing inhibitor, and is plotted as a function of inhibitor concentration. […]

[2] = biological target: T1, human α-thrombin (Homo sapiens, UniProt P00734); assay: In vitro inhibition of purified thrombin (hydrolysis of Bz-Phe-Val-Arg-pNa); type: biochemical; details: for thrombin inhibition, potency and selectivity in words: conclusion from Table 1 (versus factor Xa and plasmin); for IC50: purified human α-thrombin 36 nM, Bz-Phe-Val-Arg-pNa 66 μM, pH 7.5, 37° C.
T1 construct: Purified human α-thrombin; purchased Enzyme Research Laboratories, Inc
Description: as §1
All assays are based on the ability of the test compound to inhibit the hydrolysis of a peptide p-nitroanilide substrate. In a typical experiment, appropriate substrate is prepared in DMSO, and diluted into an assay buffer consisting of 50ram HEPES and 130 mM NaCl at a pH of 7.5. The final concentration for each of the substrates is listed below. All substrate concentrations are at least 10 fold lower than Km to insure inhibition is competitive. Test compounds are prepared as 1 mg/ml solutions in DMSO, and three additional 10-fold dilutions in DMSO are prepared. Enzyme solutions are prepared at the concentrations listed below in assay buffer.
In a typical IC50 determination, into each well of a 96 well plate is pipetted 280 uL of substrate solution, 10 μL of inhibitor solution, and the plate is allowed to thermally equilibrate at 37° C. in a Molecular Devices Plate Reader for at least 10 minutes. Reactions are initiated by the addition of a 20 μL aliquot of enzyme, and the absorbance increase at 405 nm is recorded for 15 minutes. Data corresponding to less than 10% of the total substrate hydrolysis is used in the calculations. The ratio of the velocity (rate of the change in absorbance as a function of time) for a sample containing no inhibitor is divided by the velocity of a sample containing inhibitor, and is plotted as a function of inhibitor concentration. The inverse of the slope is the concentration of inhibitor which produces a 50% decrease in activity of the enzyme. This concentration is referred to as the IC50.
Thrombin activity was assessed as the ability to hydrolyse the substrate N-benzoyl-Phe-Val-Arg-p-nitroanilide (Bz-Phe-Val-Arg-pNa), and was obtained from Sigma Chemical Company (St. Louis, Mo.). Substrate solutions were prepared at a concentration of 60 μM (60 μM<<Km =1.2 mM) in assay buffer. Final DMSO concentration was 0.3%. Purified human α-thrombin was obtained from Enzyme Research Laboratories, Inc., and was diluted into assay buffer to a concentration of 1.2 μM. Final reagent concentrations were: [thrombin]=36 nM, [Bz-Phe-Val-Arg-pNa]=66 μM, [inhibitor]=60 to 0.06 μM.

## Nc1ccc(CNC(=O)[C@@H]2CCCN2C(=O)[C@H](N)Cc2ccccc2)cc1 [Compound 13, D-phenylalanyl-N-[2-(4-aminobenzyl)]-L-prolinamide]
[1]
  Factor Xa % Inhibition at 60 μM: 0%
[2]
  thrombin inhibition, potency and selectivity in words: highly selective and potent inhibitors of thrombin
  IC50: 1 µM

## COc1cc(CNC(=O)[C@@H]2CCCN2C(=O)[C@H](N)Cc2ccccc2)ccc1O [Compound 7, D-phenylalanyl-N-[2-(4-hydroxy-3-methoxybenzyl)]-L-prolinamide]
[1]
  Factor Xa % Inhibition at 60 μM: 0%
[2]
  thrombin inhibition, potency and selectivity in words: highly selective and potent inhibitors of thrombin
  IC50: 4.7 µM

## Nc1ccc(CNC(=O)[C@@H]2CCCN2C(=O)[C@@H](Cc2ccccc2)NC(=O)OCc2ccccc2)cc1 [Compound 12, N-CBZ-D-phenylalanyl-N-[2-(4-aminobenzyl)]-L-prolinamide]
[2]
  thrombin inhibition, potency and selectivity in words: highly selective and potent inhibitors of thrombin
  IC50: 2.8 µM
